From the NIST ThermoML archive (doi:10.1021/acs.jced.9b00752)
Several values for one entry are separate records, joined by “and”; a condition that tells them apart may be missing. Identical values can stand only once. Numbers after ± are expanded uncertainties.

Experiment: mn = molality of the nth substance listed, in mol/kg
Details: 100 kPa, Liquid, Vibrating tube method

N[C@@H](Cc1ccc(O)cc1)C(=O)O [3-(p-hydroxyphenyl)-L-alanine] + O
mass density
Details	278.65 K	279.15 K	279.65 K	280.15 K	280.65 K	281.15 K	281.65 K	282.15 K	282.65 K	283.15 K
m1 = 0.0005	999.962 ± 0.1 kg/m3	999.948 ± 0.1 kg/m3	999.932 ± 0.1 kg/m3	999.91 ± 0.1 kg/m3	999.886 ± 0.1 kg/m3	999.858 ± 0.1 kg/m3	999.824 ± 0.1 kg/m3	999.79 ± 0.1 kg/m3	999.751 ± 0.1 kg/m3	999.71 ± 0.1 kg/m3
m1 = 0.001	999.995 ± 0.1 kg/m3	999.981 ± 0.1 kg/m3	999.964 ± 0.1 kg/m3	999.941 ± 0.1 kg/m3	999.918 ± 0.1 kg/m3	999.89 ± 0.1 kg/m3	999.857 ± 0.1 kg/m3	999.821 ± 0.1 kg/m3	999.781 ± 0.1 kg/m3	999.741 ± 0.1 kg/m3
m1 = 0.0011	1000.02 ± 0.1 kg/m3	1000.01 ± 0.1 kg/m3	999.989 ± 0.1 kg/m3	999.968 ± 0.1 kg/m3	999.946 ± 0.1 kg/m3	999.917 ± 0.1 kg/m3	999.883 ± 0.1 kg/m3	999.848 ± 0.1 kg/m3	999.809 ± 0.1 kg/m3	999.765 ± 0.1 kg/m3
m1 = 0.0022	1000.09 ± 0.1 kg/m3	1000.08 ± 0.1 kg/m3	1000.06 ± 0.1 kg/m3	1000.04 ± 0.1 kg/m3	1000.01 ± 0.1 kg/m3	999.984 ± 0.1 kg/m3	999.951 ± 0.1 kg/m3	999.916 ± 0.1 kg/m3	999.876 ± 0.1 kg/m3	999.835 ± 0.1 kg/m3
m1 = 0.0026	1000.11 ± 0.1 kg/m3	1000.1 ± 0.1 kg/m3	1000.08 ± 0.1 kg/m3	1000.06 ± 0.1 kg/m3	1000.03 ± 0.1 kg/m3	1000 ± 0.1 kg/m3	999.971 ± 0.1 kg/m3	999.937 ± 0.1 kg/m3	999.897 ± 0.1 kg/m3	999.854 ± 0.1 kg/m3
m1 = 0.0035	1000.18 ± 0.1 kg/m3	1000.16 ± 0.1 kg/m3	1000.14 ± 0.1 kg/m3	1000.12 ± 0.1 kg/m3	1000.1 ± 0.1 kg/m3	1000.07 ± 0.1 kg/m3	1000.03 ± 0.1 kg/m3	1000 ± 0.1 kg/m3	999.961 ± 0.1 kg/m3	999.919 ± 0.1 kg/m3
m1 = 0.0036	1000.18 ± 0.1 kg/m3	1000.16 ± 0.1 kg/m3	1000.14 ± 0.1 kg/m3	1000.12 ± 0.1 kg/m3	1000.1 ± 0.1 kg/m3	1000.07 ± 0.1 kg/m3	1000.04 ± 0.1 kg/m3	1000 ± 0.1 kg/m3	999.962 ± 0.1 kg/m3	999.92 ± 0.1 kg/m3
m1 = 0.0038	1000.18 ± 0.1 kg/m3	1000.17 ± 0.1 kg/m3	1000.15 ± 0.1 kg/m3	1000.13 ± 0.1 kg/m3	1000.1 ± 0.1 kg/m3	1000.08 ± 0.1 kg/m3	1000.04 ± 0.1 kg/m3	1000.01 ± 0.1 kg/m3	999.967 ± 0.1 kg/m3	999.925 ± 0.1 kg/m3
m1 = 0.0045	1000.23 ± 0.1 kg/m3 and 1000.24 ± 0.1 kg/m3	1000.22 ± 0.1 kg/m3 and 1000.23 ± 0.1 kg/m3	1000.2 ± 0.1 kg/m3 and 1000.21 ± 0.1 kg/m3	1000.18 ± 0.1 kg/m3 and 1000.19 ± 0.1 kg/m3	1000.15 ± 0.1 kg/m3 and 1000.16 ± 0.1 kg/m3	1000.13 ± 0.1 kg/m3 and 1000.14 ± 0.1 kg/m3	1000.09 ± 0.1 kg/m3 and 1000.1 ± 0.1 kg/m3	1000.06 ± 0.1 kg/m3 and 1000.07 ± 0.1 kg/m3	1000.02 ± 0.1 kg/m3 and 1000.03 ± 0.1 kg/m3	999.976 ± 0.1 kg/m3 and 999.985 ± 0.1 kg/m3
m1 = 0.0047	1000.24 ± 0.1 kg/m3	1000.22 ± 0.1 kg/m3	1000.21 ± 0.1 kg/m3	1000.18 ± 0.1 kg/m3	1000.16 ± 0.1 kg/m3	1000.13 ± 0.1 kg/m3	1000.1 ± 0.1 kg/m3	1000.06 ± 0.1 kg/m3	1000.02 ± 0.1 kg/m3	999.98 ± 0.1 kg/m3
m1 = 0.0053	1000.28 ± 0.1 kg/m3 and 1000.29 ± 0.1 kg/m3	1000.27 ± 0.1 kg/m3 and 1000.28 ± 0.1 kg/m3	1000.25 ± 0.1 kg/m3 and 1000.26 ± 0.1 kg/m3	1000.23 ± 0.1 kg/m3 and 1000.24 ± 0.1 kg/m3	1000.2 ± 0.1 kg/m3 and 1000.21 ± 0.1 kg/m3	1000.17 ± 0.1 kg/m3 and 1000.18 ± 0.1 kg/m3	1000.14 ± 0.1 kg/m3 and 1000.15 ± 0.1 kg/m3	1000.1 ± 0.1 kg/m3 and 1000.12 ± 0.1 kg/m3	1000.07 ± 0.1 kg/m3 and 1000.08 ± 0.1 kg/m3	1000.02 ± 0.1 kg/m3 and 1000.03 ± 0.1 kg/m3
m1 = 0.0055	1000.28 ± 0.1 kg/m3	1000.27 ± 0.1 kg/m3	1000.25 ± 0.1 kg/m3	1000.23 ± 0.1 kg/m3	1000.2 ± 0.1 kg/m3	1000.17 ± 0.1 kg/m3	1000.14 ± 0.1 kg/m3	1000.1 ± 0.1 kg/m3	1000.07 ± 0.1 kg/m3	1000.02 ± 0.1 kg/m3
